Experimental findings from patent US20230158152A1, “PROTEOLYSIS REGULATOR AND METHOD FOR USING SAME” (MEDSHINE DISCOVERY INC., priority 2020, published 2023) are described below.

Data set [1] deals with T1, Recombinant human-derived ALK (Homo sapiens, UniProt Q9UM73).
T1 construct: BAG10812.1; 1058-1620 (terminal) amino acids; GST (N); made in house
As to the kind of experiment: Inhibitory activity of compounds against ALK kinase (time-resolved fluorescence resonance energy transfer). It is filed as biochemical. Conditions: 30 μM ATP, 50 nM ULight-poly GT peptide. The protocol: The inhibitory activity of the compounds on ALK kinase was detected by time-resolved fluorescence resonance energy transfer method, that is, the ratio of fluorescence signals at 665 nm/615 nm was used to represent the activity of the enzyme.
Assay buffer solution: 50 mM 2-[4-(2-hydroxyethyl)-1-piperazinyl]ethanesulfonic acid buffer solution (HEPES) (pH 7.5), 10 mM MgCl2, 1 mM EDTA 0.01%, polyoxyethylene lauryl ether (Brij 35), 2 mM dithiothreitol (DTT).
Enzyme: Recombinant human-derived ALK (gene accession number: BAG10812.1; 1058-1620 (terminal) amino acids) was expressed with a N-terminal GST fusion protein (90 kDa) using a baculovirus expression system.
Enzyme substrate: 50 nM ULight-poly GT polypeptide.
Detection: europium-labeled anti-phosphotyrosine (PT66) antibody.
1. Compounds dissolved in 100% DMSO were added to 384-well plates by acoustic technique; 2. Recombinant human-derived ALK enzyme and enzyme substrate (50 nM ULight-poly GT peptide) or zymolyte (30 μM ATP) were dissolved in freshly prepared assay buffer; 3. The above ALK enzyme and enzyme substrate in the buffer solution were transferred to reaction wells; 4. Then, the zymolyte in the buffer solution was added to the above reaction wells to initiate the reaction; 5. The plate was incubated at room temperature for 1 hour; 6. The detection mixture (PT66 antibody and EDTA) was added to terminate the reaction, and the mixture was incubated at room temperature for 60 minutes; 7. Then, the plate was read using a microplate reader to obtain the ratio of fluorescence signals at 665 nm/615 nm.
Data analysis: Emission ratio (665 nm/615 nm) in the original data was involved in the calculation of the inhibition rate. The concentration and inhibition rate were analyzed using XLfit software 205 mode (4 Parameters Logistic Model) to obtain IC50 value and curve.

Data set [2] has as its system human lung cancer cell NCI-H2228. Briefly: Anti-proliferative effect in human lung cancer cell NCI-H2228 (CellTiter-Glo). It is filed as cell-based. The settings on record: NCI-H2228, 72 h, cell proliferation, cultured for 3 days. The protocol: In this assay, the inhibitory effect of assay compounds on cell proliferation was assayed in human lung cancer cell NCI-H2228.
(1) Promega CellTiter-Glo luminescent cell viability assay kit (Promega-G7573). (2) 2104 EnVision® plate reader, PerkinElmer.
The tumor cell line was cultured in a 37° C., 5% CO2 incubator according to the above-mentioned culture conditions. Cells were passaged periodically, and cells in logarithmic growth phase were used for plating.
(1). Cells were stained with trypan blue and viable cells were counted; (2). The cell concentration was adjusted to an appropriate concentration;
(3). 90 μL of cell suspension was added to each well of the culture plate as shown in the table above, and cell-free culture medium was added to the blank control well; (4). The plate was incubated in an incubator at 37° C., 5% CO2, and 100% relative humidity overnight.
Preparation of a mother solution storage plate with 400 times the starting compound concentration: the compounds were diluted serially with DMSO from the highest concentration to the lowest concentration. The plate was prepared freshly every time it was used.
(1). 78 μL of cell culture medium was added to a 96-well plate with a V-shaped bottom. […]
(1). […] The culture plate was left at room temperature for 10 minutes to stabilize the luminescence signal; (9). The luminescent signal was detected on a 2104 EnVision plate reader. […]
(In ATP-based viability assays light output follows the ATP content of the culture.)

The nature of data set [3]: Pharmacokinetics of the compound in mice. It is filed as in vivo, C57BL/6 (C57) mice. The source says: In this study, C57BL male mice were selected as assay animals, and the LC/MS/MS method was used to quantitatively determine the compound concentration at different time points in the plasma of mice administered intravenously or orally with the assay compound, so as to evaluate pharmacokinetic profile of the assay compound in mice.
C57BL/6 (C57) mice (male, 17-20 g, 7-10 weeks old, from Shanghai lingchang).
A clear solution of the assay compound was intravenously injected into C57 mice via tail (fasted overnight) or administered to C57 mice by gavage (fasted overnight). 200 μL of blood was collected from the saphenous vein at 0.0833, 0.25, 0.5, 1, 2, 4, 8 and 24 h after intravenous administration, and placed in an anticoagulant tube (Jiangsu Kangjian Medical Co., Ltd.) supplemented with EDTA-K2. The mixture was thoroughly vortexed at 4° C. and centrifuged at 3200 g for 10 min. Blood was collected from the saphenous vein at 0.25, 0.5, 1, 2, 4, 6, 8 and 24 h after oral gavage administration, and placed in an anticoagulant tube (Jiangsu Kangjian Medical Co., Ltd.) supplemented with EDTA-K2. The mixture was thoroughly vortexed and centrifuged at 3200 g for 10 min. Blood drug concentration was determined by LC-MS/MS, and relevant pharmacokinetic parameters were calculated with the non-compartmental model Linear/log trapezoidal method using Phoenix WinNonlin 6.3 pharmacokinetic software.

Where [4] appears, read: male, C57BL/6, mouse, plasma, intravenous injection (2 mg/kg).

The term IC50 denotes the point on the concentration scale where inhibition reaches its midpoint. The clearance is the volume of plasma or blood freed of the substance per unit of time. Low readings indicate inefficient removal, high ones efficient removal. In general, half-life refers to how long it takes for the measured level to halve. A higher half-life goes with slow loss. In general, bioavailability refers to dose-corrected exposure relative to a reference, in per cent.

T1 sequence (Q9UM73 1058-1620): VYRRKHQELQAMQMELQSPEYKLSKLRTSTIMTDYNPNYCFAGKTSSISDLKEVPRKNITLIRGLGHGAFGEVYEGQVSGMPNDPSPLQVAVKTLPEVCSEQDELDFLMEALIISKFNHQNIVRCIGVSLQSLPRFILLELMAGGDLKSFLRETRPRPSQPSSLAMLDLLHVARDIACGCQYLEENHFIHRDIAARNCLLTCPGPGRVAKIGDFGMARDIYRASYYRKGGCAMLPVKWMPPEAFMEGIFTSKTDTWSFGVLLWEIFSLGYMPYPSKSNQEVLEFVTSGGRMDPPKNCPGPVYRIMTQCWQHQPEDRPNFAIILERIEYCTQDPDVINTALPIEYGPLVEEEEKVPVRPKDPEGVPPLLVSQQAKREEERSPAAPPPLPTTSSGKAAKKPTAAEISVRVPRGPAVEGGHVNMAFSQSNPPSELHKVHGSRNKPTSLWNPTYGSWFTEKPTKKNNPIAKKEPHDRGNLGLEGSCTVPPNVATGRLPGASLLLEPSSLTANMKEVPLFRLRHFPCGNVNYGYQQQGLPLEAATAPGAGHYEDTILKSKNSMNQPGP

Consider `Cc1cc(Nc2ncc(Cl)c(Nc3ccccc3S(=O)(=O)C(C)C)n2)c(OC(C)C)cc1C1CCN(CC(=O)NCCOc2ccc3occ(C4CCC(=O)NC4=O)c3c2)CC1` (stereo not drawn) [WX001], for which the IC50 in data set [1] came to 21.8 nM. The compound further registered a half-inhibitory concentration (IC50) in data set [2] of 91 nM. Besides, the “Area under the curve (0-inf)” value in data set [3] (intravenous injection (2 mg/kg)) is 3.69 µM·h. Moreover, in data set [3] (setting [4]), the clearance was determined as 10.3 mL/min/kg and the half-life is 104 min. Further, the bioavailability in data set [3] (male, C57BL/6, mouse, plasma, oral (10 mg/kg), read-out: Bioavailability F) was 11.7%. In data set [3] (oral (10 mg/kg)), the “Area under the curve (0-inf)” value came out at 2.33 µM·h, the Peak concentration worked out at 0.68 µM and the Time to peak was determined as 0.75 h.
